Experimental findings from PubChem BioAssay (NCI) are described below.

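Protocol summary: plate cells (96-well), add compound at 5 concentrations, incubate 48 h, interpolate endpoints linearly. TGI denotes the concentration required for complete inhibition of growth.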 Some results are limits rather than exact numbers.

Among the test systems are COLO 205 colon; HCC-2998 colon; HCT-116 colon; K-562 leukemia; KM12 colon; OVCAR-4 ovarian; RPMI-8226 leukemia; SK-MEL-28 melanoma; SNB-75 CNS; HOP-62 NSCLC; HT29 colon; KM20L2 colon; NCI-H522 lung; OVCAR-3 ovarian; OVCAR-5 ovarian; UACC-62 melanoma.
Holding throughout (assay): growth of human tumour cells (NCI), 48 h

Consider `Cn1c(=O)c(C#N)c(O)c2cc3ccccc3nc21`, for which the TGI in the experiment with COLO 205 colon, in the experiment on HCC-2998 colon, in the experiment on HCT-116 colon, in the experiment on K-562 leukemia, in the experiment on KM12 colon and in the experiment with OVCAR-4 ovarian was more than 100 µM each time. For the same compound, the TGI in the experiment with RPMI-8226 leukemia, with SK-MEL-28 melanoma and in the experiment on SNB-75 CNS was more than 100 µM each time.
In the case of `Cc1c(N(Cc2ccccc2)Cc2ccccc2)nc(S(C)(=O)=O)nc1S(C)(=O)=O`, the TGI was determined as 3.2 µM in the experiment on HCC-2998 colon; 3.02 µM in the experiment on HCT-116 colon; 28 µM in the experiment with HOP-62 NSCLC; 3.67 µM with HT29 colon; 4.83 µM with K-562 leukemia; 3.28 µM with KM20L2 colon. Moreover, the TGI with NCI-H522 lung was found to be 3.14 µM; in the experiment on OVCAR-3 ovarian it was 3.36 µM; in the experiment with OVCAR-5 ovarian, 19.3 µM; in the experiment on RPMI-8226 leukemia, 7.61 µM; in the experiment with UACC-62 melanoma, 3.16 µM.
